{Fl} = fluorescein label
Legend:
[1] = test system: caspase activation and PARP cleavage in MDA231 cells; experiment: Western blot of caspase cascade activation in MDA231 cells; format: cell-based, human; settings: MDA-231 resistant cells, single agent alone at 4 hours (1,000 ng/ml TRA-8 or 1 μM Adriamycin)
Protocol: Tumor cells (3×10^6) were washed twice with cold PBS and lysed with 300 μl lysis buffer containing 10 mM Tris-HCl (pH 7.6), 150 mM NaCl, 0.5 mM EDTA, 1 mM EGTA, 0.1% SDS, 1 mM sodium orthovanadate, and a mixture of protease inhibitors (1 mM phenylmethylsulfonyl fluoride, 1 μg/ml pepstatin A, 2 μg/ml aprotinin). Lysates were sonicated for 10 seconds, and centrifuged for 20 minutes at 12,000 g. The cell lysates with equal amount of total proteins were boiled for 5 minutes with SDS-PAGE sample buffer. Total cell lysates were separated in 8%, 10%, or 12% SDS-PAGE, and electrophoretically transferred to nitrocellulose membrane. The blots were blocked with 5% nonfat dry milk in TBST buffer (20 mM Tris-HCl (pH 7.4), 500 mM NaCl, and 0.1% Tween 20) and incubated with primary antibody in blocking buffer at 4° C. overnight. The blots were washed three times with TBST and probed with HRP-conjugated secondary antibodies for one hour at room temperature. After washing four times with TBST, the probed proteins were visualized using the ECL Western blotting detection system (Amersham Biosciences, Piscataway, N.J.) according to the manufacturer's instructions.

[2] = test system: human breast cancer cell line, MDA-231; experiment: Cytotoxicity analysis (ATPLITE cell viability), MDA-231; format: cell-based; settings: for TRA-8-mediated apoptosis of induced resistant cells in presence of chemotherapeutic agent: MDA-231 resistant cells, 0.1 μM taxol, 1 μM Adriamycin, 100 μM cisplatin or 5 μM BisVIII
Protocol: (§1) Cells (1,000 cells per well) were seeded into 96-well plate in triplicate with eight concentrations (double serial dilutions from 1000 ng/ml) of TRA-8, 2E12, or TRAIL. Cell viability was determined after overnight culture using ATPLITE assay according to the manufacture's instructions (Packard Instruments, Meriden, Conn.). The results are presented as the precentage of viable cells in treated wells compared to medium control wells.
(§2) Cells (5×10^5/ml) were incubated with a starting dose of 1 ng/ml TRA-8 for two days. Cells were split with fresh medium and incubated with a double dose of TRA-8 every two days until TRA-8 dose reached 2,000 ng/ml. At each treatment cycle, the cell viability of non-induced (parental) and induced cells treated with an inducing dose of TRA-8 was determined by ATPLITE assay.

[3] = test system: human ovarian cancer cell line, UL-3C; experiment: Cytotoxicity analysis (ATPLITE cell viability), UL-3C; format: cell-based; settings: for TRA-8-mediated apoptosis of induced resistant cells in presence of chemotherapeutic agent: UL-3C resistant cells, 0.1 μM taxol, 1 μM Adriamycin, 100 μM cisplatin or 5 μM BisVIII
Protocol: as §1, §2

Cdk5/p35 = Cdk5/p35 (Homo sapiens, UniProt Q00535); settings: cited from earlier work
GSK-3 [4] = settings: cited from earlier work
Cdk1/B = settings: cited from earlier work
GSK-3 [5] = settings: cited from earlier work; remark: listed apart in the source
panel of tumor cells = experiment: TRA-8-induced apoptosis in panel of tumor cells after DDX3 sRNAi oligo (ATPLite); format: cell-based; settings: including some spontaneous resistant cells; various concentrations of TRA-8 overnight
Protocol: Cytotoxicity analysis of tumor cell susceptibility to TRA-8, 2E12, and TRAIL-mediated apoptosis. Cells (1,000 cells per well) were seeded into 96-well plates in triplicate with eight concentrations (double serial dilutions from 1000 ng/ml) of TRA-8, 2E12, or TRAIL. Cell viability was determined after overnight culture using an ATPLITE™ assay according to the manufacturer's instructions (Packard Instruments, Meriden, Conn.). The results are presented as the precentage of viable cells in treated wells compared to medium control wells.
They were then cloned into the BLOCK-iT U6 entry vector. The shRNA is driven by the U6 promoter and can be transiently expressed in most dividing or nondividing mammalian cell types. Resistant cells were transfected with RNAi used LIPOFECTAMINE 2000 (Invitrogen) for the RNAi response. The decreased DDX3 expression was determined by Western blot analysis using anti-DDX3 antibody 36 hours after transfection. Once decreased DDX3 expression was achieved, the siRNA oligo was synthesized (Target sequence: […] (SEQ ID NO:27): Sense RNA 5′-Fl-[…] (Fl-SEQ ID NO:27) (Fl=fluorescein); Anti-senseRNA 5′-[…]-3′ (SEQ ID NO:28), and RNAi control oligo (RI-010-DP) was purchased from Molecula (Columbia, Md.).

[6] = test system: DDX3 in panel of tumor cells; experiment: DDX3 expression in panel of tumor cells after DDX3 sRNAi oligo (Western blot); format: cell-based; settings: 48 hours after transfection
Text: They were then cloned into the BLOCK-iT U6 entry vector. The shRNA is driven by the U6 promoter and can be transiently expressed in most dividing or nondividing mammalian cell types. Resistant cells were transfected with RNAi used LIPOFECTAMINE 2000 (Invitrogen) for the RNAi response. […] Once decreased DDX3 expression was achieved, the siRNA oligo was synthesized (Target sequence: […] (SEQ ID NO:27): Sense RNA 5′-Fl-[…] (Fl-SEQ ID NO:27) (Fl=fluorescein); Anti-senseRNA 5′-[…]-3′ (SEQ ID NO:28), and RNAi control oligo (RI-010-DP) was purchased from Molecula (Columbia, Md.).

Sequence of Cdk5/p35 (Q00535 whole entry, species assumed): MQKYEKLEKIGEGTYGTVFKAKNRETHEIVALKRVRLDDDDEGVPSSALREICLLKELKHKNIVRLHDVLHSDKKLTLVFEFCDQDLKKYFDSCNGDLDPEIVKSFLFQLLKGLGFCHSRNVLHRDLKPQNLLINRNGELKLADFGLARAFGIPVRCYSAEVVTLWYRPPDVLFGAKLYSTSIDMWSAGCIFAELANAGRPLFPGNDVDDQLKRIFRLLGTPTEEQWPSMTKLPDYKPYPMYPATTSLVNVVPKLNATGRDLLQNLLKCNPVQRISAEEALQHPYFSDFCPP
Sequence of Cdk5/p35 (Q15078 whole entry partner, species assumed): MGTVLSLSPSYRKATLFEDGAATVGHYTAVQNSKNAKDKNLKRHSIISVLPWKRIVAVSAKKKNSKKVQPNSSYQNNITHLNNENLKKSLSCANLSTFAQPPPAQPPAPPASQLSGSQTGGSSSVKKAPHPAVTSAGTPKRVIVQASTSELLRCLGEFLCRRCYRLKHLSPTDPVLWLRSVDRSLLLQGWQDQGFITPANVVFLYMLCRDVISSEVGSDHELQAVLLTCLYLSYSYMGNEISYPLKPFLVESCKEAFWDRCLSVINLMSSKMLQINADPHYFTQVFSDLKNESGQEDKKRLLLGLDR

Compound: COc1cccc2c1C(=O)c1c(O)c3c(c(O)c1C2=O)C[C@@](O)(C(=O)CO)C[C@@H]3O[C@H]1C[C@H](N)[C@H](O)[C@H](C)O1 [Adriamycin]
- activation of caspases 2, 3, 8, 9 [1]: did not induce any significant activation
- TRA-8-mediated apoptosis of induced resistant cells in presence of chemotherapeutic agent [2]: TRA-8 dose-dependent response was restored
- TRA-8-mediated apoptosis of induced resistant cells in presence of chemotherapeutic agent [3]: TRA-8 dose-dependent response was restored

Compound: CCCCc1c(-c2ccc(OC)cc2)[nH]c2nccnc12 [Aloisine, 7-n-Butyl-6-(4-methoxyphenyl)[5H]pyrrolo[2,3-b]pyrazine]
- IC50 (Cdk5/p35): 1500 nM
- IC50 (GSK-3 [4]): 920 nM
- IC50 (Cdk1/B): 700 nM

Compound: [Be+2] [Beryllium ions]
- inhibition of GSK-3 (GSK-3 [4]): micromolar range

Compound: Cn1cc(C2=C(c3cn(CCCN)c4ccccc34)C(=O)NC2=O)c2ccccc21 [Bisindolymaleimide VIII]
- TRA-8-mediated apoptosis of induced resistant cells in presence of chemotherapeutic agent [2]: TRA-8 dose-dependent response was restored
- TRA-8-mediated apoptosis of induced resistant cells in presence of chemotherapeutic agent [3]: TRA-8 dose-dependent response was restored

Compound: N.N.[Cl][Pt][Cl] [Cisplatin]
- TRA-8-mediated apoptosis of induced resistant cells in presence of chemotherapeutic agent [2]: TRA-8 dose-dependent response was restored
- TRA-8-mediated apoptosis of induced resistant cells in presence of chemotherapeutic agent [3]: TRA-8 dose-dependent response was restored

Compound: CC(C)NCC(O)c1ccc(O)c(O)c1 (stereo not shown) [Isoproterenol]
- decrease of GSK-3 activity (GSK-3 [5]): approximately 50%

Compound: Cn1cc(C2=C(c3ccc(Cl)cc3Cl)C(=O)NC2=O)c2ccccc21 [SB216763]
- inhibition of GSK-3 (GSK-3 [4]): potent

Compound: CC(=O)O[C@H]1C(=O)[C@@]2(C)[C@H]([C@H](OC(=O)c3ccccc3)[C@]3(O)C[C@H](OC(=O)[C@H](O)[C@@H](NC(=O)c4ccccc4)c4ccccc4)C(C)=C1C3(C)C)[C@]1(OC(C)=O)CO[C@@H]1C[C@@H]2O [Taxol]
- TRA-8-mediated apoptosis of induced resistant cells in presence of chemotherapeutic agent [2]: TRA-8 dose-dependent response was restored
- TRA-8-mediated apoptosis of induced resistant cells in presence of chemotherapeutic agent [3]: TRA-8 dose-dependent response was restored

Compound: DDX3 RNAi: synthesized siRNA oligo, target sequence GGAGAAATTATCATGGGAAAC (SEQ ID NO:27), antisense SEQ ID NO:28 (sense GGAGAAAUUAUCAUGGGAAAC; antisense GUUUCCCAUGAUAAUUUCUCC; sense: RNA, 5' {Fl}, backbone not given here; antisense: RNA, backbone not given here)
- TRA-8-induced apoptosis (panel of tumor cells): enhanced the TRA8-induced apoptosis
- amount of endogenous DDX3 [6]: reduced the amount of endogenous DDX3

Compound: TRAIL: Recombinant soluble TRAIL purchased from Alexis Biochemicals
- susceptibility of TRA-8 resistant cells to induced apoptosis ([2]; MDA-231R cells vs parental): still susceptible
- susceptibility to apoptosis, in vitro cytotoxicity assay ([2]; parental MDA-231 cells): susceptible to apoptosis
- susceptibility of TRA-8 resistant cells to induced apoptosis ([3]; UL-3CR cells vs parental): still susceptible
- susceptibility to apoptosis, in vitro cytotoxicity assay ([3]; parental UL-3C cells): susceptible to apoptosis

Compound: insulin: comparator for decrease of GSK-3 activity
- decrease of GSK-3 activity (GSK-3 [5]): approximately 50%

Source: patent publication US9528993B2, “Agents and methods related to screening for resistance to DR5 and reducing resistance to DR5 agonists” (The UAB Research Foundation, priority 2005, dated 2016)
